The Kinase Knowledgebase extract (Sharma et al. 2016)
pIC50: −log10 of the molar value.

How the values were obtained:
[1] = target: PIK3CA (human) (UniProt P42336); assay: Inhibition of PIK3CA Kinase Activity
[2] = target: PIK3CG (human) (UniProt P48736); assay: Inhibition of PIK3CG Kinase Activity
PIK3CG (human), sequence (P48736 whole entry, looked up): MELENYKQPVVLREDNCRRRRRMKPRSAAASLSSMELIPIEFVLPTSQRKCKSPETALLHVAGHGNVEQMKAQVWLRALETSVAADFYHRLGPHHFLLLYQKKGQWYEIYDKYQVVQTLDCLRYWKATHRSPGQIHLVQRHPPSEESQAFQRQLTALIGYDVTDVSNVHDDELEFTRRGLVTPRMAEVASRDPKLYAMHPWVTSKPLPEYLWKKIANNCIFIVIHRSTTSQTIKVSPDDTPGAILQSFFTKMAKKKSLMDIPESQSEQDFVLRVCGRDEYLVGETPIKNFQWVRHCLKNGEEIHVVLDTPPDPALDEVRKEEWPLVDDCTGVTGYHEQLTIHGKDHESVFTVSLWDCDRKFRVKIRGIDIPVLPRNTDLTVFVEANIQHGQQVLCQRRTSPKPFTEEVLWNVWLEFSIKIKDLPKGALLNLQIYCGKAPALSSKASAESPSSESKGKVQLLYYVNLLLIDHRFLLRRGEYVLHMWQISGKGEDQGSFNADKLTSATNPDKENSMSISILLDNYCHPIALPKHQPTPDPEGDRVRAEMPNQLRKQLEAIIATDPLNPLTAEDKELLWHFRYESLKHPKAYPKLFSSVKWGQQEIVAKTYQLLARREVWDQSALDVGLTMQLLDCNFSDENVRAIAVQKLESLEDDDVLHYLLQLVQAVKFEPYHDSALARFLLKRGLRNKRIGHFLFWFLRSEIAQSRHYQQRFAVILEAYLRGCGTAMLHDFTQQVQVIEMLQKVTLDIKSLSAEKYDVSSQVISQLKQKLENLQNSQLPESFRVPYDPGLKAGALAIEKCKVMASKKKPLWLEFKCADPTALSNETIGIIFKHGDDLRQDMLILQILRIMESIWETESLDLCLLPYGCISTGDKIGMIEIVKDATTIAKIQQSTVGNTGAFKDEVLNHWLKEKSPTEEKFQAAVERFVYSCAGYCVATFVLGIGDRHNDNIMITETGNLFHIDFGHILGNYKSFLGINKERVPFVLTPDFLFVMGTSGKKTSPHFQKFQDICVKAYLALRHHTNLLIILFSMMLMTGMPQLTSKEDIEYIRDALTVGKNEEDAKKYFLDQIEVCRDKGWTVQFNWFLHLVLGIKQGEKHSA

PIK3CA (human), sequence (P42336 whole entry, looked up): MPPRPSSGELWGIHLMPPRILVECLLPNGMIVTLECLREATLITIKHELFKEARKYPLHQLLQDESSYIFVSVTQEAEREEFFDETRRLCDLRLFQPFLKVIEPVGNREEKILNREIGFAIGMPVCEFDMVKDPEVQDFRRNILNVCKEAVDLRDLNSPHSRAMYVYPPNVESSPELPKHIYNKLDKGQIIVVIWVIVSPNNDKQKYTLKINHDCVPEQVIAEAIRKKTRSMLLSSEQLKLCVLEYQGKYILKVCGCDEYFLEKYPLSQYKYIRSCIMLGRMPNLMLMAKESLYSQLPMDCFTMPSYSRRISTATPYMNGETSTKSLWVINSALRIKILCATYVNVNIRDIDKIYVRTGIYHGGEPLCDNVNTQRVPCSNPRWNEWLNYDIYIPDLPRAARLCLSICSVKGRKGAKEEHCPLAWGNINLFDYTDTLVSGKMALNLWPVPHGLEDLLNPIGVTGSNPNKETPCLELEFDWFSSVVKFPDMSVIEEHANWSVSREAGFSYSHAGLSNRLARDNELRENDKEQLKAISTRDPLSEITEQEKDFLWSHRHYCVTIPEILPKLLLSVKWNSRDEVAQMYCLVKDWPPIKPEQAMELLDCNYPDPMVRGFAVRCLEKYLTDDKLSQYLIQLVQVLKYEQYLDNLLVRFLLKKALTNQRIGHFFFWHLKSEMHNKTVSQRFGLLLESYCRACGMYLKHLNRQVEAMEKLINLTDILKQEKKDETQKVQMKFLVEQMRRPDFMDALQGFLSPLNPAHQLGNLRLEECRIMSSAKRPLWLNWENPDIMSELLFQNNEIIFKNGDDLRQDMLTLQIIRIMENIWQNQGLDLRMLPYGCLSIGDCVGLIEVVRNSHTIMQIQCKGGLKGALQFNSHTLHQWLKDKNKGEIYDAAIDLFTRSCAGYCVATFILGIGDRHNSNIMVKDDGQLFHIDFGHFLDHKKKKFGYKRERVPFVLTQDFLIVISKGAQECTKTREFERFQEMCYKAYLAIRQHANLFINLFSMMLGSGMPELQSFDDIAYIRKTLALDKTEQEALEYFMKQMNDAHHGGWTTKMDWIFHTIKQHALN

SMILES	pIC50 [1]	pIC50 [2]
CC(C)n1nnc2c(N3CCOCC3)nc(-c3ccc(NC(=O)Nc4ccc(NS(C)(=O)=O)cc4)cc3)nc21	6.26	–
CCn1nnc2c(N3CCOCC3)nc(-c3ccc(NC(=O)Nc4ccc(NC(=O)NCCOC)cc4)cc3)nc21	6.25	–
CCn1nnc2c(N3CCOC[C@@H]3C)nc(-c3ccc(NC(=O)Nc4ccc(C(=O)NCCN5CCCC5)cc4)cc3)nc21	6.22	–
CCn1nnc2c(N3CCOC[C@@H]3C)nc(-c3ccc(NC(=O)Nc4ccc(C(=O)N(C)CCN(C)C)cc4)cc3)nc21	6.23	8.66
CCn1nnc2c(N3CCOCC3)nc(-c3ccc(NC(=O)Nc4ccc(NC(=O)N(C)CCN(C)C)cc4)cc3)nc21	6.23	8.78
Oc1cccc(-c2nc(N3CCOCC3)c3nnn(CCCCN4CCN(Cc5ccccc5)CC4)c3n2)c1	6.94	6.67
CCn1nnc2c(N3CCOCC3)nc(-c3ccc(NC(=O)Nc4ccc(NC(=O)N5CCC(N(C)C)CC5)cc4)cc3)nc21	6.21	8.84
CCN1CCN(C(=O)Nc2ccc(NC(=O)Nc3ccc(-c4nc(N5CCOCC5)c5nnn(CC)c5n4)cc3)cc2)CC1	6.22	9.05
CCn1nnc2c(N3CCOCC3)nc(-c3ccc(NC(=O)Nc4ccc(NCc5cccnc5)cc4)cc3)nc21	6.26	8.48
CCn1nnc2c(N3CCOCC3)nc(-c3ccc(NC(=O)Nc4ccc(NCc5ccc(OC)nc5)cc4)cc3)nc21	6.24	–
CC(C)n1nnc2c(N3CCOCC3)nc(-c3ccc(NC(=O)Nc4ccc([N+](=O)[O-])cc4)cc3)nc21	6.30	–
CC(C)n1nnc2c(N3CCOCC3)nc(-c3ccc(NC(=O)Nc4ccc(N5CCN(C)CC5)cc4)cc3)nc21	6.25	–
CCn1nnc2c(N3CCOCC3)nc(-c3ccc(NC(=O)Nc4ccc(C(=O)O)nc4)cc3)nc21	6.31	8.48
CCn1nnc2c(N3CCOCC3)nc(-c3ccc(NC(=O)Nc4ccc(NC(=O)N5CCC(N6CCCC6)CC5)cc4)cc3)nc21	6.19	9.12
CCn1nnc2c(N3CCOCC3)nc(-c3ccc(NC(=O)Nc4ccc(C(=O)Nc5cccnc5)cc4)cc3)nc21	6.25	8.73
CN(C)CCNC(=O)c1ccc(NC(=O)Nc2ccc(-c3nc(N4CCOCC4)c4nnn(-c5cccc(C(=O)O)c5)c4n3)cc2)cc1	6.19	9.02
CCn1nnc2c(N3CCOCC3)nc(-c3ccc(NC(=O)Nc4ccc(C(=O)N(C)CCN(C)C)nc4)cc3)nc21	6.25	8.73
CCn1nnc2c(N3CCOCC3)nc(-c3ccc(NC(=O)Nc4ccc(NCc5ccncc5)cc4)cc3)nc21	6.26	–
CCn1nnc2c(N3CCOCC3)nc(-c3ccc(NC(=O)Nc4ccc(NC(=O)c5cccc(N(C)C)c5)cc4)cc3)nc21	6.22	8.74
CC(C)n1nnc2c(N3CCOCC3)nc(-c3ccc(NC(=O)Nc4ccc(C(=O)NCCN(C)C)cc4)cc3)nc21	6.24	8.70
CCn1nnc2c(N3CCOCC3)nc(-c3ccc(NC(=O)Nc4ccc(NC(=O)NC5CCN(C)CC5)cc4)cc3)nc21	6.22	8.77
CCn1nnc2c(N3CCOCC3)nc(-c3ccc(NC(=O)Nc4ccc(N5CCN(C)CC5)cc4)cc3)nc21	6.26	–
CCn1nnc2c(N3CCOC[C@@H]3C)nc(-c3ccc(NC(=O)Nc4ccc(C(=O)NCCN(C)C)cc4)cc3)nc21	6.24	8.73
CCn1nnc2c(N3CCOCC3)nc(-c3ccc(NC(=O)Nc4ccc(N)cc4)cc3)nc21	6.34	8.13
CCn1nnc2c(N3CCOCC3)nc(-c3ccc(NC(=O)Nc4ccc(NC(=O)N5CCOCC5)cc4)cc3)nc21	6.24	–

SMILES	pIC50 [1]	pIC50 [2]
CCn1nnc2c(N3CCOCC3)nc(-c3ccc(NC(=O)Nc4ccc(NCc5ccc(F)nc5)cc4)cc3)nc21	6.24	–
CCn1nnc2c(N3CCOCC3)nc(-c3ccc(NC(=O)Nc4ccc(NC(=O)NCc5ccccn5)cc4)cc3)nc21	6.23	8.48
CCn1nnc2c(N3CCOCC3)nc(-c3ccc(NC(=O)Nc4ccc(NC(=O)N5CCN(C)CC5)cc4)cc3)nc21	6.23	8.73
CCn1nnc2c(N3CCOC[C@@H]3C)nc(-c3ccc(NC(=O)Nc4ccc(C(=O)N5CCN(C)CC5)cc4)cc3)nc21	6.23	8.67
CC(C)n1nnc2c(N3CCOCC3)nc(-c3ccc(NC(=O)Nc4ccc(N)cc4)cc3)nc21	6.33	–
CCn1nnc2c(N3CCOCC3)nc(-c3ccc(NC(=O)Nc4ccc(NC(=O)NCCN5CCN(C)CC5)cc4)cc3)nc21	6.20	8.74
CCn1nnc2c(N3CCOCC3)nc(-c3ccc(NC(=O)Nc4ccc(NC(=O)NCCN(C)C)cc4)cc3)nc21	6.24	8.78
CC(C)(C)OC(=O)N1CC(n2nnc3c(N4CCOCC4)nc(-c4ccc(NC(=O)Nc5ccccc5)cc4)nc32)C1	7.24	6.10
CCn1nnc2c(N3CCOC[C@@H]3C)nc(-c3ccc(NC(=O)Nc4ccc(C(=O)N5CCC(N(C)C)CC5)cc4)cc3)nc21	6.21	–
O=C(Nc1ccncc1)Nc1ccc(-c2nc(N3CCOCC3)c3nnn(CCO)c3n2)cc1	8.28	7.70
CCn1nnc2c(N3CCOCC3)nc(-c3ccc(NC(=O)Nc4ccc(C(=O)N5CCN(C)CC5)nc4)cc3)nc21	6.24	–
CCn1nnc2c(N3CCOCC3)nc(-c3ccc(NC(=O)Nc4ccc(CN5CCN(C)CC5)cc4)cc3)nc21	6.25	8.87
CCn1nnc2c(N3CCOCC3)nc(-c3ccc(NC(=O)Nc4ccc(C(=O)OC)nc4)cc3)nc21	6.30	–
CCn1nnc2c(N3CCOCC3)nc(-c3ccc(NC(=O)Nc4ccc(NC(=O)c5ccncc5)cc4)cc3)nc21	6.25	8.73
CCn1nnc2c(N3CCOCC3)nc(-c3ccc(NC(=O)Nc4ccc(C(=O)NN(C)C)cc4)cc3)nc21	6.27	8.10
CCn1nnc2c(N3CCOC[C@@H]3C)nc(-c3ccc(NC(=O)Nc4ccc(C(=O)NCCN5CCCCC5)cc4)cc3)nc21	6.21	–
CCn1nnc2c(N3CCOCC3)nc(-c3ccc(NC(=O)Nc4ccc(NC(=O)CN(C)C)cc4)cc3)nc21	6.24	8.88
CN(C)CCNC(=O)c1ccc(NC(=O)Nc2ccc(-c3nc(N4CCOCC4)c4nnn(-c5cccc(C(N)=O)c5)c4n3)cc2)cc1	6.19	9.10
CCn1nnc2c(N3CCOCC3)nc(-c3ccc(NC(=O)Nc4ccc(NC(=O)NCCN5CCCC5)cc4)cc3)nc21	6.22	8.77
CCn1nnc2c(N3CCOCC3)nc(-c3ccc(NC(=O)Nc4ccc(NC(=O)N5CCNCC5)cc4)cc3)nc21	6.24	8.77
CCn1nnc2c(N3CCOCC3)nc(-c3ccc(NC(=O)Nc4ccc(NC(=O)N5CCCN(C)CC5)cc4)cc3)nc21	6.22	8.78
CC(C)n1nnc2c(N3CCOCC3)nc(-c3ccc(NC(=O)Nc4ccc(C(=O)N5CCN(C)CC5)cc4)cc3)nc21	6.23	–
Oc1cccc(-c2nc(N3CCOCC3)c3nnn(C4CCN(Cc5ccc[nH]5)CC4)c3n2)c1	7.21	6.37
CCn1nnc2c(N3CCOCC3)nc(-c3ccc(NC(=O)Nc4ccc([N+](=O)[O-])cc4)cc3)nc21	6.31	–
